We go through eleven compounds from patent publication US6858620B2, “Condensed pyridoindole derivatives” (Lilly ICOS, LLC, priority 2000, dated 2005).

The structures appear in SMILES notation.

For orientation: IC50 means the concentration that inhibits the measured activity by half. By melting point is commonly meant the temperature of the solid-liquid transition.

Data set [1] deals with T1, human recombinant PDE5 (Homo sapiens, UniProt O76074).
T1 construct: host or cells: Saccharomyces cerevisiae strain BJ2-54 (ATCC 74465), described as an exemplary method
Put plainly: Inhibitory effect on cGMP-PDE (PDE5 IC50, one-step assay). The conditions noted are these: in vitro, 0.15 μM 8-[H3]-cGMP, 30 minutes incubation. The class given is biochemical. How it is done: The compounds of structural formula (I) were tested for an ability to inhibit PDE5. The ability of a compound to inhibit PDE5 activity is related to the IC50 value for the compound, i.e., the concentration of inhibitor required for 50% inhibition of enzyme activity. The IC50 value for compounds of structural formula (I) were determined using recombinant human PDE5.
cGMP-PDE activity of compounds of the present invention was measured using a one-step assay adapted from Wells et al., Biochim. Biophys. Acta, 384, 430 (1975). The reaction medium contained 50 mM Tris-HCl, pH 7.5, 5 mM magnesium acetate, 250 μg/ml 5′-Nucleotidase, 1 mM EGTA, and 0.15 μM 8-[H^3]-cGMP. Unless otherwise indicated, the enzyme used was a human recombinant PDE5 (ICOS Corp., Bothell, Wash.).
Compounds of the invention were dissolved in DMSO finally present at 2% in the assay.

Consider `O=C1OC(=S)N2[C@H](c3ccc4c(c3)OCO4)c3[nH]c4ccccc4c3C[C@H]12` [Example 3, (3aR,10R)-10-Benzo[1,3]dioxol-5-yl-1-thioxo3a,4,9,10-tetrahydro-2-oxa-9,10a-diaza-cyclopenta[β]fluoren-3-one], for which the half-inhibitory concentration (IC50) in data set [1] was 53 nM.

On to `O=S1OCC2Cc3c([nH]c4ccccc34)C(c3ccc4c(c3)OCO4)N21` (centres unmarked) [Example 15, 10-Benzo[1,3]dioxol-5-yl-3a,4,9,10-tetrahydro-3H-2-oxa-1-thia-9,10a-diazacyclopenta[b]fluorene-1-oxide], for which, in data set [1], the IC50 was 20 nM.

`CN1C(=O)N2[C@H](c3ccc4c(c3)OCO4)c3[nH]c4ccccc4c3C[C@H]2C1=S` [Example 5, (3aS,10R)-10-Benzo(1,3)dioxol-5-yl-2-methyl-3-thioxo-2,3,3a,4,9,10-hexahydro-2,9,10a-triazacyclopenta[b]fluoren-1-one]: the melting point fell in the range of 168 to 174 °C. Further, the IC50 in data set [1] stood at 12 nM.

Turning to `O=C1OCC2Cc3c([nH]c4ccccc34)C(c3ccc4c(c3)OCO4)N12` (centres unmarked) [Example 13, 10-Benzo[1,3]dioxol-5-yl-3a,4,9,10-tetrahydro-3H-2-oxa-9,10a-diazacyclopenta[b]fluoren-1-one], in data set [1], the IC50 was 70 nM.

Consider `CN1C[C@@H]2Cc3c([nH]c4ccccc34)[C@H](c3ccc4c(c3)OCO4)N2C1=O` (racemic) [Example 11, (+−, cis)-10-Benzo[1,3]dioxol-5-yl-2-methyl-2,3,3a,4,9,10-hexahydro-2,9,10a-triazacyclopenta[b]fluoren-1-one], for which the 50% inhibitory concentration (IC50) in data set [1] worked out at 60 nM.

`O=C1CCN2[C@H](c3ccc4c(c3)OCO4)c3[nH]c4ccccc4c3C[C@H]12` (racemic) [Example 14, (+−, trans)-5-Benzo[1,3]dioxol-5-yl,2,3,5,6,11,11a-hexahydro-indolizino[6,7-b]indol-1-one]: in data set [1], the IC50 worked out at 390 nM.

Regarding `CN1C(=O)[C@@H]2Cc3c([nH]c4ccccc34)[C@@H](c3ccc4c(c3)OCO4)N2C1=S` [Example 6, (3aS,10R)-10-Benzo(1,3)dioxol-5-yl-2-methyl-1-thioxo-1,2,3a,4,9,10-hexahydro-2,9,10a-triazacyclopenta[b]fluoren-3-one], the melting point lay in the range of 234 to 236 °C. The IC50 in data set [1] came out at 12 nM.

For the compound `COc1ccc([C@@H]2c3[nH]c4ccccc4c3C[C@H]3C(=O)N(Cc4ccccc4)CN23)cc1` (racemic) [Example 12, (+−, cis)-2-Benzyl-10-(4-methoxyphenyl)-1,2,3a,4,9,10-hexahydro-2,9,10a-triazacyclopenta[b]fluoren-3-one], the IC50 in data set [1] is 60 nM.

As for `O=C1CC(=O)N2C1Cc1c([nH]c3ccccc13)C2c1ccc2c(c1)OCO2` (centres unmarked) [Example 9, 5-Benzo[1,3]dioxol-5-yl-5,6,11,11a-tetrahydroindolizino[6,7-b]indole-1,3-dione], the IC50 in data set [1] is 200 nM.

With `O=C1OC(=O)N2[C@H](c3ccc4c(c3)OCO4)c3[nH]c4ccccc4c3C[C@H]12` [Example 1, (3aR,10R)-(+)-10-Benzo[1,3]dioxol-5-yl-3a,4,9,10-tetrahydro-2-oxa-9,10a-diaza-cyclopenta[β]fluorene-1,3-dione], the melting point was 197 to 202 °C. Also, the IC50 in data set [1] stood at 205 nM.

As to `CCCCN1C(=O)[C@@H]2Cc3c([nH]c4ccccc34)[C@H](c3ccc(OC)cc3)N2C1=S` (racemic) [Example 7, (+−, trans)-2-Butyl-10-(4-methoxyphenyl)-1-thioxo-1,2,3a,4,9,10-hexahydro-2,9,10a-triazacyclopenta-[b]fluoren-3-one], the IC50 in data set [1] was 20 nM.
